Laboratory results from the NIST ThermoML archive (doi:10.1016/j.jct.2012.04.018).
“And” between values parts separate entries of the source, which are not always exact repeats. Equal entries are not always repeated.

What was measured:
[1] = heat capacity at constant pressure per volume; xn = mol fraction of the nth substance listed; conditions: 101 kPa, Liquid, DSC, calvet, x2 = 0.44
[2] = refractive index (other wavelength) (dimensionless); xn = mol fraction of the nth substance listed; conditions: 290.9 K, 101 kPa, Liquid, Wavelength=632.8 nm, He-Ne laser

N#Cc1ccccc1 [benzonitrile] + CCCCCCCCCCC
Conditions | heat capacity | refractive index
[1], 286.54 K | 1846500 J/K/m3 | –
[1], 286.76 K | 1854000 J/K/m3 | –
[1], 286.99 K | 1862200 J/K/m3 | –
[1], 287.22 K | 1857300 J/K/m3 | –
[1], 287.45 K | 1862800 J/K/m3 | –
[1], 287.68 K | 1867600 J/K/m3 | –
[1], 287.91 K | 1870300 J/K/m3 | –
[1], 288.14 K | 1878500 J/K/m3 | –
[1], 288.37 K | 1879100 J/K/m3 | –
[1], 288.6 K | 1887700 J/K/m3 | –
[1], 288.83 K | 1896600 J/K/m3 | –
[1], 288.94 K | 1895600 J/K/m3 | –
[1], 289.06 K | 1899000 J/K/m3 | –
[1], 289.17 K | 1913500 J/K/m3 | –
[1], 289.29 K | 1889000 J/K/m3 | –
[1], 289.4 K | 1931900 J/K/m3 | –
[1], 289.43 K | 1910800 J/K/m3 | –
[1], 289.46 K | 1918000 J/K/m3 | –
[1], 289.5 K | 1946800 J/K/m3 | –
[1], 289.53 K | 1960500 J/K/m3 | –
[1], 289.56 K | 1952300 J/K/m3 | –
[1], 289.6 K | 1953700 J/K/m3 | –
[1], 289.63 K | 1973800 J/K/m3 | –
[1], 289.67 K | 1984300 J/K/m3 | –
[1], 289.7 K | 1990700 J/K/m3 | –
[1], 289.74 K | 1995400 J/K/m3 | –
[1], 289.75 K | 2003100 J/K/m3 | –
[1], 289.77 K | 2011400 J/K/m3 | –
[1], 289.78 K | 2022500 J/K/m3 | –
[1], 289.79 K | 2035800 J/K/m3 | –
[1], 289.8 K | 2046300 J/K/m3 | –
[1], 289.81 K | 2053900 J/K/m3 | –
[1], 289.82 K | 2063600 J/K/m3 | –
[1], 289.83 K | 2084100 J/K/m3 | –
[1], 289.85 K | 2111800 J/K/m3 | –
[1], 289.86 K | 2155800 J/K/m3 and 2141800 J/K/m3 and 2104500 J/K/m3 | –
[1], 289.87 K | 2067700 J/K/m3 and 2029900 J/K/m3 and 1997600 J/K/m3 | –
[1], 289.88 K | 1943900 J/K/m3 and 1858200 J/K/m3 | –
[1], 289.89 K | 1823500 J/K/m3 | –
[1], 289.9 K | 1809500 J/K/m3 | –
[1], 289.92 K | 1795800 J/K/m3 | –
[1], 289.93 K | 1786900 J/K/m3 | –
[1], 289.94 K | 1780500 J/K/m3 | –
[1], 289.95 K | 1778700 J/K/m3 | –
[1], 289.98 K | 1770500 J/K/m3 | –
[1], 290.01 K | 1757500 J/K/m3 | –
[1], 290.04 K | 1756200 J/K/m3 | –
[1], 290.06 K | 1746900 J/K/m3 | –
[1], 290.09 K | 1748200 J/K/m3 | –
[1], 290.12 K | 1747000 J/K/m3 | –
[1], 290.15 K | 1739100 J/K/m3 | –
[1], 290.18 K | 1736600 J/K/m3 | –
[1], 290.21 K | 1740600 J/K/m3 | –
[1], 290.24 K | 1732400 J/K/m3 | –
[1], 290.27 K | 1728300 J/K/m3 | –
[1], 290.44 K | 1721500 J/K/m3 | –
[1], 290.64 K | 1711900 J/K/m3 | –
[1], 290.84 K | 1707300 J/K/m3 | –
[1], 291.04 K | 1702300 J/K/m3 | –
[1], 291.24 K | 1698500 J/K/m3 | –
[1], 291.44 K | 1694500 J/K/m3 | –
[1], 291.64 K | 1693500 J/K/m3 | –
[1], 291.85 K | 1691400 J/K/m3 | –
[1], 292.05 K | 1688200 J/K/m3 | –
[1], 292.25 K | 1688500 J/K/m3 | –
[1], 292.45 K | 1685900 J/K/m3 | –
[1], 292.65 K | 1684300 J/K/m3 | –
[1], 292.85 K | 1683400 J/K/m3 | –
[1], 293.19 K | 1682100 J/K/m3 | –
[1], 293.43 K | 1680500 J/K/m3 | –
[1], 293.65 K | 1678500 J/K/m3 | –
[1], 293.88 K | 1679000 J/K/m3 | –
[1], 294.11 K | 1678400 J/K/m3 | –
[1], 294.34 K | 1676100 J/K/m3 | –
[1], 294.57 K | 1675700 J/K/m3 | –
[1], 294.8 K | 1675100 J/K/m3 | –
[1], 295.11 K | 1673900 J/K/m3 | –
[1], 295.85 K | 1672100 J/K/m3 | –
[1], 296.59 K | 1670800 J/K/m3 | –
[1], 297.34 K | 1670100 J/K/m3 | –
[1], 298.08 K | 1669100 J/K/m3 | –
[1], 298.82 K | 1667900 J/K/m3 | –
[1], 299.57 K | 1667300 J/K/m3 | –
[1], 300.31 K | 1667200 J/K/m3 | –
[1], 301.05 K | 1666300 J/K/m3 | –
[1], 301.8 K | 1666200 J/K/m3 | –
[1], 302.54 K | 1665900 J/K/m3 | –
[1], 303.29 K | 1665200 J/K/m3 | –
[1], 304.03 K | 1665100 J/K/m3 | –
[1], 304.77 K | 1665400 J/K/m3 | –
[1], 305.52 K | 1665600 J/K/m3 | –
[1], 306.26 K | 1665000 J/K/m3 | –
[1], 307 K | 1664800 J/K/m3 | –
[1], 307.75 K | 1665500 J/K/m3 | –
[1], 308.49 K | 1665600 J/K/m3 | –
[1], 309.23 K | 1665400 J/K/m3 | –
[1], 309.98 K | 1665500 J/K/m3 | –
[1], 310.72 K | 1665900 J/K/m3 | –
[1], 311.46 K | 1666400 J/K/m3 | –
[1], 312.21 K | 1666000 J/K/m3 | –
[1], 312.95 K | 1665700 J/K/m3 | –
[1], 313.69 K | 1666100 J/K/m3 | –
[1], 314.44 K | 1667100 J/K/m3 | –
[1], 315.18 K | 1666800 J/K/m3 | –
[1], 315.92 K | 1667700 J/K/m3 | –
[1], 316.67 K | 1668100 J/K/m3 | –
[1], 317.41 K | 1667700 J/K/m3 | –
[1], 318.15 K | 1667700 J/K/m3 | –
[1], 318.9 K | 1668700 J/K/m3 | –
[1], 319.64 K | 1667900 J/K/m3 | –
[1], 320.69 K | 1668700 J/K/m3 | –
[1], 321.75 K | 1669700 J/K/m3 | –
[1], 322.8 K | 1669700 J/K/m3 | –
[1], 323.86 K | 1670100 J/K/m3 | –
[1], 324.91 K | 1671400 J/K/m3 | –
[2], x2 = 0.133 | – | 1.5005
[2], x2 = 0.212 | – | 1.4877
[2], x2 = 0.336 | – | 1.4708
[2], x2 = 0.42 | – | 1.4607
[2], x2 = 0.512 | – | 1.4513
[2], x2 = 0.606 | – | 1.443
[2], x2 = 0.704 | – | 1.4351
[2], x2 = 0.799 | – | 1.4285
[2], x2 = 0.902 | – | 1.4222
